Results taken from patent publication US11058775B2, “Insulin dimer-incretin conjugates” (Merck Sharp & Dohme Corp., priority 2016, dated 2021).

Target: T1, human GCGR (Homo sapiens, UniProt P47871)
T1 construct: expressed in transfected cells; grown under Blasticidin and Hygromycin selection
Experiment: cAMP activity assay, cells expressing human GCGR
Type: cell-based
Settings: ratio of hGCGR EC50 to hGLP1R EC50, Table 7
Method: Activity of the peptides and the conjugates at the Glucagon receptor (GCGR) and GLP-1 receptor (GLP1R) may be measured in a cAMP activity assay as follows.
Peptides are dissolved in 100% DMSO and serially diluted to generate 10 point titrations. The peptide solutions are then transferred into 384-well assay plates (150 nL/well). Assay ready frozen cells expressing human GIPR, GLP1R or human GCGR are suspended in growth media consisting of DMEM medium (GIBCO), 10% FBS (GIBCO), 1×NEAA(GIBCO), 1×P/S (GIBCO), 10 μg/mL Blasticidin (GIBCO) and 200 μg/mL Hygromycin (GIBCO). […] The cell suspensions (15 μL) are then added to the assay plates containing the peptide solutions (30,000 cells/well for human GCGR; 10,000 cells/well for human GLP1R and 15,000 cells/well for human GIPR). The cells are incubated for one hour at room temperature in the dark.
Production of cAMP may be determined using HitHunter™ cAMPXS kits (DiscoverX) following the manufacturer's protocol. The plates are incubated for overnight at room temperature in the dark. Luminescence may be measured using an EnVision Multilabel plate reader (Perkin Elmer). Native GIP, GLP-1 and Glucagon (Bachem) may be used as control peptides. EC50 values may be calculated using uses a 4 parameter logistic fit based on the Levenberg-Marquardt algorithm.

T1 sequence (P47871 26-477): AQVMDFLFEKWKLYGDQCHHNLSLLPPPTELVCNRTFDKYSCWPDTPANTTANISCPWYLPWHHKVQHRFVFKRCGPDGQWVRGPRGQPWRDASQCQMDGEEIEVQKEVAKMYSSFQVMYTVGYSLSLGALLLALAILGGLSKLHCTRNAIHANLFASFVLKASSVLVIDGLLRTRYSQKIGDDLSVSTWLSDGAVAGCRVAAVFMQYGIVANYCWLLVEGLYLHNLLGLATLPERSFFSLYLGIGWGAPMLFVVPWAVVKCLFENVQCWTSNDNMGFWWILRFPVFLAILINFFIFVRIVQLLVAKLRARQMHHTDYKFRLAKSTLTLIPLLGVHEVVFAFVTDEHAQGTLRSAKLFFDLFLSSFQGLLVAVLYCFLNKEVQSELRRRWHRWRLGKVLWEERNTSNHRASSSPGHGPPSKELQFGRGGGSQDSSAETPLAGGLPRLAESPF

CC(C)C[C@H](NC(=O)[C@H](Cc1ccc(O)cc1)NC(=O)[C@H](CCCCN)NC(=O)[C@H](CO)NC(=O)[C@H](CCCCN)NC(=O)[C@H](CC(=O)O)NC(=O)[C@H](CO)NC(=O)[C@@H](NC(=O)[C@H](Cc1ccccc1)NC(=O)[C@@H](NC(=O)CNC(=O)[C@H](CCC(N)=O)NC(=O)[C@@H](CO)NC(=O)[C@@H](N)Cc1c[nH]cn1)[C@@H](C)O)[C@@H](C)O)C(=O)N[C@@H](CC(=O)O)C(=O)N[C@@H](CCC(=O)O)C(=O)N[C@@H](CCCNC(=N)N)C(=O)N[C@@H](C)C(=O)N[C@@H](C)C(=O)N[C@@H](CCC(N)=O)C(=O)N[C@@H](CC(=O)O)C(=O)N[C@@H](Cc1ccccc1)C(=O)N[C@H](C(=O)N[C@@H](CCCCN=[N+]=[N-])C(=O)N[C@@H](Cc1c[nH]c2ccccc12)C(=O)N[C@@H](CC(C)C)C(=O)N[C@@H](CC(C)C)C(=O)N[C@@H](CC(=O)O)C(=O)N[C@H](C(N)=O)[C@@H](C)O)C(C)C [PEP88]
GCGR/GLP1R ratio: 0.97
